Six molecules from ChEMBL document CHEMBL1201862, “PubChem BioAssay data set” (2004) can be followed below.

Active and inactive are the calls of the source.

The term IC50 denotes the concentration that gives 50% inhibition. As a reminder, the EC50 is the concentration needed to bring the measured effect to its halfway point. As a reminder, the AC50 is the concentration at which the activity in the assay is half-maximal.

Test [1] has as its target Intestinal-type alkaline phosphatase (Homo sapiens, UniProt P09923). The test can be described thus: Dose Response confirmation of uHTS hits from a small molecule inhibitors of human intestinal alkaline phosphatase via a luminescent assay. [Related pubchem assays (depositor defined):AID2544, AID2574]. Type of test: functional.
Test [2] has as its target Lysosomal acid glucosylceramidase (Homo sapiens, UniProt P04062). The test can be described thus: Dose response cell-based high throughput screening assay to identify enhancers of beta-glucosidase activity. [Related pubchem assays: 784 ]. Type of test: functional.
Test [3] addresses Voltage-gated N-type calcium channel alpha-1B subunit/Amyloid beta A4 precursor protein-binding family A member 1 (Homo sapiens, UniProt Q00975+Q02410). In words: disruptors of Mint-PDZ/N-type channel peptide interaction – biochemical, HTRF, set 2, SAR follow-up (AID 434980). Type of test: functional. A general note: TR-FRET usually uses a lanthanide donor and a delayed reading to cut background.

Test [4] concerns the target T1, Eukaryotic translation initiation factor 2-alpha kinase 3 (Homo sapiens, UniProt Q9NZJ5). The test can be described thus: Counterscreen assay for PERK inhibitors: Dose response cell-based high throughput screening assay to measure inhibition of PERK at 6 hours. [Related pubchem assays: 1522, 1416 ]. Type of test: functional. On the technique in general: The purpose of a counterscreen is to sort out artefacts and off-target activity.

Test [5] concerns the target T1, Eukaryotic translation initiation factor 2-alpha kinase 3. The test can be described thus: Dose response cell-based high-throughput screening assay to measure PERK inhibition. [Related pubchem assays: 1416 ]. It is filed as functional.
Test [6] is described as follows: Luminescence Cell-Based Dose Confirmation HTS to Identify Inhibitors of Platelet Dense Granule Release. [Related pubchem assays: 1663 (Primary HTS), 1678 (Summary of Project)]. Type of test: functional.
A short description of test [7]: blockers of SFLLRN-triggered platelet ATP secretion – cell-based, human platelets, luminescence, dry powder, dose response (AID 493100). It is filed as functional.
Test [8] in a line: inhibitors of SFLLRN-triggered platelet P-selectin exposure, dose response, cell-based, fluorescence, flow cytometry, human platelets (AID 2511). Type of test: functional. On the technique in general: A flow cytometer gives signals particle by particle.
In test [9] the target is T2, Luciferin 4-monooxygenase (Photinus pyralis, UniProt P08659). The test can be described thus: firefly luciferase enzyme inhibitors, dose response, biochemical, luminescence (AID 1891).
T2 sequence (P08659 whole entry, the tested form may be a part): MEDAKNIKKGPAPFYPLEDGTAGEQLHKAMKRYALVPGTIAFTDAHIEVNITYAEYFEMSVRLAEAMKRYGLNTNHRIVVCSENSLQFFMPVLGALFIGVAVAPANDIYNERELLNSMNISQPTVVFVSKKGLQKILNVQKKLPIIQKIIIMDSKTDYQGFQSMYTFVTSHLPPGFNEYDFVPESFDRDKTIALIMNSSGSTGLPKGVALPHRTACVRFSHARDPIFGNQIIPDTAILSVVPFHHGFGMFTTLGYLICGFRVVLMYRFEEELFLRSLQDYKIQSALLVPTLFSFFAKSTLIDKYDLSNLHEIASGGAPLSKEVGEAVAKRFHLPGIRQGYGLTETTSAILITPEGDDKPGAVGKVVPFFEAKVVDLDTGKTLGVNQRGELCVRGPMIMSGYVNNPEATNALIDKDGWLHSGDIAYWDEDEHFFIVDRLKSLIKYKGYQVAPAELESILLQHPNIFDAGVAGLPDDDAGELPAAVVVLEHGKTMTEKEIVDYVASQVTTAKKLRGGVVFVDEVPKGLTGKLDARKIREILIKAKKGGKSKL
Test [10] can be described thus: inhibitors of clade B AD8 Env fusion, dose response, cell-based, cherry-pick (AID 652062).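 Further: luciferase signal from cell-cell fusion driven by HIV-1 clade B AD8 Env; potency is for inhibitors of fusion seen as a drop in luminescence.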 Type of test: functional.
A short description of test [11]: ZM109 Env clade C HIV-1 fusion inhibitors, dose response, HeLa effector, CEM target cells, luciferase, cherry-pick (AID 652058). Type of test: functional, cell-based.
Test [12] has as its target T2, Luciferin 4-monooxygenase. In words: In vitro luciferase assay using purified luciferase. [Related pubchem assays: 1299, 1270, 1295, 1375, 1287, 1281, 1293, 1291, 1289, 1280, 465, 1364, 1282, 1372, 1365, 1370, 1367, 1366, 1266, 1373, 1292, 1290, 1302, 1371, 1283, 1271, 1294, 1374, 1368, 1369 ].
Test [13] in a line: cytotoxicity in HEK-293T cells, dose response, cytotoxicity control for BCR NF-kB inhibitor project, luminescence, B-cell screen hits (AID 489021).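 Further: HEK-293T cells carrying an NF-kB luciferase reporter; cells exposed to compound for about 14 hours before viability readout.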 It is filed as functional, cell-based.
In test [14] the test system is HEK293. In words: Cytotoxicity assay in HEK293 cells. [Related pubchem assays (depositor defined):AID1266, AID1269, AID1270, AID1271, AID1280, AID1281, AID1282, AID1283, AID1287, AID1289, AID1290, AID1291, AID1292, AID1293, AID1294, AID1295, AID1299, AID1302, AID1364, AID1365, AID1366, AID1367, AID1369, AID1370, AID1371, AID1372, AID1373, AID1374, AID1375, AID1384 …. It is filed as functional, cell-based. Conditions: Homo sapiens.

Test [15] has as its target Paired box protein Pax-8 (Homo sapiens, UniProt Q06710). In words: inhibitors of PAX8-driven TPO luciferase reporter, dose response, RMG-I cells, cherry-pick (AID 687027).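 Further: luciferase reporter driven by Pax8 target thyroperoxidase promoter measured by SteadyGlo luminescence.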 It is filed as functional, cell-based.
In test [16] the test system is HEK293. The test can be described thus: PMA/Ionomycin induced NF-kB luciferase assay in 293- NF-kB-Luc stable cells. [Related pubchem assays: 1299, 1270, 1295, 1375, 1287, 1281, 1293, 1291, 1289, 1280, 465, 1364, 1282, 1372, 1365, 1370, 1367, 1366, 1269, 1373, 1292, 1290, 1302, 1371, 1283, 1271, 1294, 1374, 1368, 1369 ]. Type of test: functional, cell-based. The note with it: Homo sapiens.

The target of test [17] is Heat shock protein HSP 90-alpha (Homo sapiens, UniProt P07900). In words: Luminescence-based dose response biochemical high throughput screening assay for inhibitors of the Heat Shock Protein 90 (HSP90). [Related pubchem assays: 1831 (Summary AID.), 1846 (Confirmation screen.), 1789 (Primary screen.)].
In test [18] the test system is HEK293. In words: PMA/Ionomycin-induced IL-8 production in HEK293- NF-kB-Luc stable cells. [Related pubchem assays: 1299, 1295, 1375, 1287, 1281, 1293, 1291, 1289, 1280, 465, 1364, 1282, 1372, 1365, 1367, 1366, 1266, 1269, 1373, 1292, 1290, 1302, 1371, 1283, 1271, 1294, 1374, 1368, 1369 ]. It is filed as functional, cell-based. The note with it: Homo sapiens.
The nature of test [19]: off-target signal loss in HeLa-CEM21 co-culture – HeLa F-luc CTL cells, cherry-picked, counter-screen for HIV-1 Env fusion inhibitor project, dose response (AID 652040).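 Further: potency for signal decrease marking cytotoxic or nonspecific inhibition.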 It is filed as functional, cell-based.
Test [20] can be described thus: inhibitors of HIV Env-driven cell fusion, dose response, cherry-pick (AID 652057). It is filed as functional, cell-based.
The subject of test [21] is HEK293. The test can be described thus: TNF Induced NF-kB Luciferase in 293-NF-kB-Luc Stable Cells. [Related pubchem assays: 1266, 1299, 1269, 1373, 1292, 1290, 1302, 1371, 1283, 1270, 1295, 1271, 1375, 1294, 1374, 1281, 1293, 1291, 1289, 1280, 465, 1368, 1364, 1282, 1372, 1365, 1369, 1370, 1367, 1366 ]. Type of test: functional, cell-based. Conditions: Homo sapiens.

T1 sequence (Q9NZJ5 whole entry): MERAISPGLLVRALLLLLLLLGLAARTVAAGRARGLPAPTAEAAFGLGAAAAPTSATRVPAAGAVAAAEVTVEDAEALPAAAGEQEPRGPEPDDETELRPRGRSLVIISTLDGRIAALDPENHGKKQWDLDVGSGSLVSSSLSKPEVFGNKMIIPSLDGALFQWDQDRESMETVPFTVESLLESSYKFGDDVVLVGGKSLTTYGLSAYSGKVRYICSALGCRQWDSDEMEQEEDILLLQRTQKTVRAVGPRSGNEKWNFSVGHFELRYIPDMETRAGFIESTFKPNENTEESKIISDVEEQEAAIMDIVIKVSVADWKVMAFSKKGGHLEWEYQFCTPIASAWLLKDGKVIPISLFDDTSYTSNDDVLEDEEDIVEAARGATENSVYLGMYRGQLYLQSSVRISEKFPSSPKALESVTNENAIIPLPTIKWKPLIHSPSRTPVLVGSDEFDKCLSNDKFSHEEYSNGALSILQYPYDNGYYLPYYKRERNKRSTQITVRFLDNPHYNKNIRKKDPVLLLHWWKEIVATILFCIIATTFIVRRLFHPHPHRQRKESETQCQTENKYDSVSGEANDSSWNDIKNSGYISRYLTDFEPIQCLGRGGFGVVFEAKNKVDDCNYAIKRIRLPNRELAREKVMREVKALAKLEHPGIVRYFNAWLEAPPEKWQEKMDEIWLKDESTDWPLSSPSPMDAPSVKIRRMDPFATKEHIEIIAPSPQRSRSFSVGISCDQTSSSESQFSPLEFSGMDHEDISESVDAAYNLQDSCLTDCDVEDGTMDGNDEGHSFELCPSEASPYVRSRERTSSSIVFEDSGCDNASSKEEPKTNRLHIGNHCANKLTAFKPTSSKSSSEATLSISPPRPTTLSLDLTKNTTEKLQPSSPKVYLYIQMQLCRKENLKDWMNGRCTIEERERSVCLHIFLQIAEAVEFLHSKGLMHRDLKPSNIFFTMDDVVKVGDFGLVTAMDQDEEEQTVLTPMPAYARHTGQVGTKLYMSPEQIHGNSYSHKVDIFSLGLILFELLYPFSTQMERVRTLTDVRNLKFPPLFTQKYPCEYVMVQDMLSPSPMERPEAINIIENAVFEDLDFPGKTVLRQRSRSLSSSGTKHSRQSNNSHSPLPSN
Chain of Paired box protein Pax-8 (Q06710 whole entry): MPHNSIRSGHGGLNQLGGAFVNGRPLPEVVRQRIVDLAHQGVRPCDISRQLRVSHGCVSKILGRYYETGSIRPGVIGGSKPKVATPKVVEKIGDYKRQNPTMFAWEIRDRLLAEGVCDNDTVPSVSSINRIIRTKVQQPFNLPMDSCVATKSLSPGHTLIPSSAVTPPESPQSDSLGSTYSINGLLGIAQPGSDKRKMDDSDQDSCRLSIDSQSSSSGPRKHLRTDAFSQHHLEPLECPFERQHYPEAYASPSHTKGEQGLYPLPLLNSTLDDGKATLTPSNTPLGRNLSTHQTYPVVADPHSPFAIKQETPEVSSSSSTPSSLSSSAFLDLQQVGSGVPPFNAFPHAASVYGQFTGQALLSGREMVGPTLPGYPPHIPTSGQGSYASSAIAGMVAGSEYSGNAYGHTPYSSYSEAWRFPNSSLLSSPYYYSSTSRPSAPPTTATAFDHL
Chain of Lysosomal acid glucosylceramidase (P04062 whole entry): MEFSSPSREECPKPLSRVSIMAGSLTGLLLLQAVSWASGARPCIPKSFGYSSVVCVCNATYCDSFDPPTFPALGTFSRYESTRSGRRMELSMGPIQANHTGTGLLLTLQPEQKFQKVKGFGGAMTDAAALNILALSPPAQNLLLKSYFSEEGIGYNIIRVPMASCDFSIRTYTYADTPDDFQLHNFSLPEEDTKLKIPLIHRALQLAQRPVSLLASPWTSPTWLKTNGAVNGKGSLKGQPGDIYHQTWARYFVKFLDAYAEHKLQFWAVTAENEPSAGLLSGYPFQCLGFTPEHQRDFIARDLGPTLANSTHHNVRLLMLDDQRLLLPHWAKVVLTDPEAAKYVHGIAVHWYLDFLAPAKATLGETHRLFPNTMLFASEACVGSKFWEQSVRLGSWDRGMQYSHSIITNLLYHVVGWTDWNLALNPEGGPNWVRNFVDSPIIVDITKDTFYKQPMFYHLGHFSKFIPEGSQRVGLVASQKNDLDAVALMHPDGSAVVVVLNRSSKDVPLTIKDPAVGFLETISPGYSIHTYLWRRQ
Chain of Intestinal-type alkaline phosphatase (P09923 whole entry): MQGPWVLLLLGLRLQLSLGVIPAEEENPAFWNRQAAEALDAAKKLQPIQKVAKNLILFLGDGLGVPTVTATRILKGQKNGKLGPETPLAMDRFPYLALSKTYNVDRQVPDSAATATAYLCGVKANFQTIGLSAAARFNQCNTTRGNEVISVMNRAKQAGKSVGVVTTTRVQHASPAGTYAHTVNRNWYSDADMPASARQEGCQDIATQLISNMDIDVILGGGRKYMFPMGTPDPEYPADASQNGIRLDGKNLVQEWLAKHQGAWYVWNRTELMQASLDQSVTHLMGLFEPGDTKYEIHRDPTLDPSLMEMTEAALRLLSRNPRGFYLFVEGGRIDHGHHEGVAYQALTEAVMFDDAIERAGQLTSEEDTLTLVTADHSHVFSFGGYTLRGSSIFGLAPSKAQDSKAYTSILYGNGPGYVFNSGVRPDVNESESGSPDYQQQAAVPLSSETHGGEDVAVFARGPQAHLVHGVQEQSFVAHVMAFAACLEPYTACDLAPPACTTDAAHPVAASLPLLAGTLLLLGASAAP

With `CCOc1cccc(OCCOCCOc2ccccc2C(C)=O)c1`, in test [1], the IC50 was > 100 µM (inactive).

Take `CC(=O)N1CCc2cc(S(=O)(=O)CCC(=O)N3CCN(C(=O)c4ccco4)CC3)ccc21`: the EC50 in test [2] is on record as > 50 µM (not active).

Take `CC(C)CCNC(=O)c1cc(-c2ccco2)nc2ccccc12`: in [3], the IC50 was > 56.8 µM (inactive).

As for `O=C(O)CSc1ncnc2scc(-c3ccc(Br)cc3)c12`, the EC50 in [4] and in [5] was > 55.7 µM (not active) each time.

On to `Cc1ccc(-c2c(C#N)c(N)n(-c3ccc(C)cc3)c(=O)c2C#N)cc1`, for which the results for the EC50 in test [6], in [8] and in [9] were 2.3 µM (active), < 3 µM (active) and > 112 µM (not active), respectively. For the same molecule, the AC50 in [7] is 9.08 µM (active).

Regarding `O=C(CN1C(=O)c2ccccc2S1(=O)=O)N1CCc2ccccc21`, the AC50 is 3.89 µM (active) in test [10]; 8.62 µM (active) in test [11]; 4.88 µM (active) in [15]; 3.84 µM (active) in test [19]; 2.89 µM (active) in [20]. In addition, the EC50 in test [12] was > 8 µM (not active); in [14] it was > 8 µM (inactive); in test [16] it was 0.53 µM (active); in test [18], > 8 µM (not active); in test [21], > 8 µM (not active). For the same molecule, the IC50 in test [13] was > 80 µM (inactive); in [17], 35.3 µM (not active).
